Measured values: patent publication US20230080054A1 (ILDONG PHARMACEUTICAL CO., LTD., priority 2021, published 2023)

Target: T1, human ANO6 (Homo sapiens, UniProt Q4KMQ2)
T1 construct: expressed in transfected cells
T1 sequence (Q4KMQ2 1-931 isoform Q4KMQ2-2): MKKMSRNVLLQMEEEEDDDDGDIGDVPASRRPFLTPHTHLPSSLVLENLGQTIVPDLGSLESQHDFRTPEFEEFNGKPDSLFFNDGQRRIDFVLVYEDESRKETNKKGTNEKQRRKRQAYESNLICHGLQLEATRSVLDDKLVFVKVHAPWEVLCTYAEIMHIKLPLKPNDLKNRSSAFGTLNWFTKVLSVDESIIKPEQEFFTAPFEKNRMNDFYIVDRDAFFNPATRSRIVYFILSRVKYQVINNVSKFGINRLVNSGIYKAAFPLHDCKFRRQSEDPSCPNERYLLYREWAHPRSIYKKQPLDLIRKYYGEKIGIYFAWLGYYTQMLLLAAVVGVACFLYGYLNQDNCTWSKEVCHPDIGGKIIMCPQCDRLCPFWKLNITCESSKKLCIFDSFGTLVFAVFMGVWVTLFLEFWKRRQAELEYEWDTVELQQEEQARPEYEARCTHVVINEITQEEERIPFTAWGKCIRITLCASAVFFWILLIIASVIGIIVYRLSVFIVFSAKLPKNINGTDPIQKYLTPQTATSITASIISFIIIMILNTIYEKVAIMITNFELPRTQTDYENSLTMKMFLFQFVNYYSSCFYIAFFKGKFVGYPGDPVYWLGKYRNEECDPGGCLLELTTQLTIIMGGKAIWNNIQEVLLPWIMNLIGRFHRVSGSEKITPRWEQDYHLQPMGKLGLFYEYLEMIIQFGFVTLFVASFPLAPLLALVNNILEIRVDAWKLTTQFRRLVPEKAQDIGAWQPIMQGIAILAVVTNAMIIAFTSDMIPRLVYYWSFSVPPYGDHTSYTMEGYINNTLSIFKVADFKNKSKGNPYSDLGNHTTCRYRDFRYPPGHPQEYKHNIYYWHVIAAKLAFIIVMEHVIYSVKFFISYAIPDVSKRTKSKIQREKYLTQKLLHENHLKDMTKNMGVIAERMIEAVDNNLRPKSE
Experiment: YFP quenching assay (ANO6 ion channel activity)
Assay type: cell-based
Conditions: 10 μM ionomycin; for inhibition at 1 µM: test compound 1 μM, read-out: Inhibition Level 1 μM; for inhibition at 30 µM: test compound 30 μM, read-out: Inhibition Level 30 μM
Excerpt: Example 3: YFP Quenching Assay
1. Materials and Instruments
Ionomycin (Alomonelab cat. #I-700), FLUOstar Omega microplate reader (BMG Labtech, Ortenberg, Germany), and MARS Data Analysis Software (BMG Labtech)
Fisher rat thyroid (FRT) cells stably expressing human ANO6 (GenBank accession no. NP_001191732.1, provided by J. H. Nam, Dongguk University College of Medicine, Korea) and halide sensor mutant YFP-H148Q/I152L/F46L) were constructed and grown in Dulbecco's modified Eagle's medium Nutrient Mixture F-12 (DMEM/F-12) supplemented 10% FBS, 100 units/mL penicillin, 500 μg/mL hygromycin B and 100 μg/mL neomycin.
Fisher rat thyroid (FRT) cells stably expressing human ANO6 and halide sensor mutant YFP (H148Q/I152L/F46L) were seeded in black walled 96 well plates and incubated in a 37° C., 5% CO2 incubator to reach about 100% cell confluency. Then, each well of the 96 well plates were washed for several times with phosphate buffered saline (PBS), and 50 μL of PBS was added to each well. Test compounds (100× in DMSO) were added to each well to be 1% v/v DMSO. After incubation for 10 minutes in 40° C., the 96 well plates were transferred to a plate reader, and YFP fluorescence changed by SCN-introduced into cells through activated ANO6 were measured by the following steps.
(1) YFP fluorescence signals were recorded in every 0.4 seconds.
(2) Basal YFP fluorescence signals were recorded for 1 second.
(3) 140 mM SCN-(50 μL) containing 10 μM ionomycin was injected to each well, and YFP fluorescence signals were recorded.
The inhibitory activity (%) of each of the test compounds was obtained by the following steps.
(1) Background signals were subtracted from recording values, and the resulting values were converted to relative percentages. The values at 0 second were set to be 100%.
(2) Differences between the values at 3.6 seconds and those of at 7.6 seconds were calculated.
(3) In each row of 96 well plate, the inhibitory activity of each of the test compounds was calculated as percentages. The inhibitory activity of a negative control group to which neither compounds nor ionomycin were treated was set to be 100%, and the inhibitory activity of a positive control group to which ionomycin was treated and compounds were not treated was set to be 0%.
(4) The assay was performed in duplicate or triplicate, and the results were averaged.

| inhibition at 1 µM [%] | inhibition at 30 µM [%] | Compound |
| --- | --- | --- |
| 30 to 60 | ≥ 60 | Cc1ccc(-c2ccc(Nc3cccc(C(=O)NC(C)C)c3)nn2)cc1 [Compound A31] |
| 30 to 60 | 30 to 60 | Cc1cccc(-c2cnc(Nc3cccc(C(=O)NCc4ccc(C)o4)c3)nc2)c1 [Compound A18] |
| 30 to 60 | ≥ 60 | COc1ccc(CNC(=O)c2cccc(Nc3ccc(-c4ccccc4)nn3)c2)c(OC)c1 [Compound A61] |
| 30 to 60 |  | O=C(NCC1CCCO1)c1cccc(Nc2ncc(-c3cccc(F)c3)cn2)c1 (stereo not shown) [Compound A83] |
| 30 to 60 | ≥ 60 | CCN(CCCNC(=O)c1cccc(Nc2ccc(-c3ccccc3)nn2)c1)Cc1ccccc1 [Compound A42] |
|  | 30 to 60 | NC(=O)c1ccc(Nc2ccc(-c3ccccc3)nn2)cc1 [Compound A86] |
| 30 to 60 | ≥ 60 | COCCCNC(=O)c1cccc(Nc2ccc(-c3ccccc3)nn2)c1 [Compound A69] |
|  | < 30 | Cc1ccc(-c2ccc(Nc3cccc(C(=O)NCc4ccc(Br)cc4)c3)nn2)cc1 [Compound A30] |
| 30 to 60 | ≥ 60 | Cc1ccc(CNC(=O)c2cccc(Nc3ccc(-c4cccc(F)c4)nn3)c2)cc1 [Compound A25] |
| 30 to 60 | ≥ 60 | COc1ccc(OC)c(CNC(=O)c2cccc(Nc3ccc(-c4ccccc4)nn3)c2)c1 [Compound A60] |

More lines, now with the values behind:

| Compound | inhibition at 1 µM [%] | inhibition at 30 µM [%] |
| --- | --- | --- |
| O=C(NCCc1ccc2c(c1)OCO2)c1cccc(Nc2ncc(-c3ccccc3)cn2)c1 [Compound 106, N-[2-(2H-1,3-benzodioxol-5-yl)ethyl]-3-[(5-phenylpyrimidin-2-yl)amino]benzamide] | 30 to 60 |  |
| Cc1ccc(CNC(=O)c2cccc(Nc3ccc(C#N)nn3)c2)o1 [Compound 107, 3-[(6-cyanopyridazin-3-yl)amino]-N-[(5-methylfuran-2-yl)methyl]benzamide] | < 30 |  |
| Cc1ccc(CNC(=O)c2cccc(Nc3ncc(-c4ccc5c(c4)OCO5)cn3)c2)o1 [Compound 103, 3-{[5-(2H-1,3-benzodioxol-5-yl)pyrimidin-2-yl]amino}-N-[(5-methylfuran-2-yl)methyl]benzamide] | < 30 |  |
| Cc1ccc(CNC(=O)c2cccc(Nc3ccc(-c4ccccn4)nn3)c2)o1 [Compound 23, N-[(5-methylfuran-2-yl)methyl]-3-{[6-(pyridin-2-yl)pyridazin-3-yl]amino}benzamide] | < 30 | ≥ 60 |
| Cc1ccc(CNC(=O)c2cccc(Nc3ccc(C4CCOC4)nn3)c2)o1 (stereo not shown) [Compound 87, N-[(5-methylfuran-2-yl)methyl]-3-{[6-(oxolan-3-yl)pyridazin-3-yl]amino}benzamide] | < 30 |  |
| Cc1ccc(CNC(=O)c2cccc(Nc3ccc(C4CCN(C)CC4)nn3)c2)o1 [Compound 70, N-[(5-methylfuran-2-yl)methyl]-3-{[6-(1-methylpiperidin-4-yl)pyridazin-3-yl]amino}benzamide] | < 30 |  |
| CCOC(=O)c1cccc(-c2cnc(Nc3cccc(C(=O)NCc4ccc(C)o4)c3)nc2)c1 [Compound 101, ethyl 3-{2-[(3-{[(5-methylfuran-2-yl)methyl]carbamoyl}phenyl)amino]pyrimidin-5-yl}benzoate] | < 30 |  |
| CCNC(=O)c1cccc(Nc2ccc(-c3ccccc3)nn2)c1 [Compound 37, N-ethyl-3-[(6-phenylpyridazin-3-yl)amino]benzamide] | 30 to 60 | ≥ 60 |
| O=C(NCCCN1CCCC1)c1cccc(Nc2ccc(-c3ccccc3)nn2)c1 [Compound 21, 3-[(6-phenylpyridazin-3-yl)amino]-N-[3-(pyrrolidin-1-yl)propyl]benzamide] | < 30 | < 30 |
| Cc1ccc(CNC(=O)c2cccc(Nc3ncc(-c4cnc5ccccc5c4)cn3)c2)o1 [Compound 104, N-[(5-methylfuran-2-yl)methyl]-3-{[5-(quinolin-3-yl)pyrimidin-2-yl]amino}benzamide] | < 30 |  |
| Cc1ccc(CNC(=O)c2cccc(Nc3ccc(-c4ccncc4)nn3)c2)o1 [Compound 9, N-[(5-methylfuran-2-yl)methyl]-3-{[6-(pyridin-4-yl)pyridazin-3-yl]amino}benzamide] | < 30 | ≥ 60 |
| Cc1ccc(CNC(=O)c2cccc(Nc3cccnn3)c2)o1 [Compound 5, N-[(5-methylfuran-2-yl)methyl]-3-[(pyridazin-3-yl)amino]benzamide] |  | 30 to 60 |
| Cc1ccc(Nc2cccc(C(=O)NCc3ccc(C)o3)c2)nn1 [Compound 47, N-[(5-methylfuran-2-yl)methyl]-3-[(6-methylpyridazin-3-yl)amino]benzamide] | < 30 |  |
| Cc1ccc(CNC(=O)c2cccc(Nc3ccc(-c4c(C)noc4C)nn3)c2)o1 [Compound 72, 3-{[6-(3,5-dimethyl-1,2-oxazol-4-yl)pyridazin-3-yl]amino}-N-[(5-methylfuran-2-yl)methyl]benzamide] | < 30 |  |
| Cc1ccc(CNC(=O)c2cccc(Nc3ccc(-c4ccco4)nn3)c2)o1 [Compound 8, 3-{[6-(furan-2-yl)pyridazin-3-yl]amino}-N-[(5-methylfuran-2-yl)methyl]benzamide] | 30 to 60 | ≥ 60 |
| O=C(NCCc1ccccc1)c1cnc(Nc2ccc(-c3ccccc3)nn2)s1 [Compound 113, N-(2-phenylethyl)-2-[(6-phenylpyridazin-3-yl)amino]-1,3-thiazole-5-carboxamide] | < 30 |  |
| Cc1ccc(CNC(=O)c2cccc(Nc3ccc(C(C)C)nn3)c2)o1 [Compound 85, N-[(5-methylfuran-2-yl)methyl]-3-{[6-(propan-2-yl)pyridazin-3-yl]amino}benzamide] | 30 to 60 |  |
| Cc1ccc(CNC(=O)c2cccc(Nc3ccc(CCc4ccccc4)nn3)c2)o1 [Compound 76, N-[(5-methylfuran-2-yl)methyl]-3-{[6-(2-phenylethyl)pyridazin-3-yl]amino}benzamide] | < 30 |  |
| Cc1ccc(CNC(=O)c2cccc(Nc3ncc(-c4ccc(C(F)(F)F)cc4)cn3)c2)o1 [Compound 100, N-[(5-methylfuran-2-yl)methyl]-3-({5-[4-(trifluoromethyl)phenyl]pyrimidin-2-yl}amino)benzamide] | < 30 |  |
| O=C(NCCc1ccncc1)c1cccc(Nc2ccc(-c3ccccc3)nn2)c1 [Compound 27, 3-[(6-phenylpyridazin-3-yl)amino]-N-[2-(pyridin-4-yl)ethyl]benzamide] | 30 to 60 | ≥ 60 |
| Cc1ccc(CNC(=O)c2cccc(Nc3ncc(-c4cc5ccccc5o4)cn3)c2)o1 [Compound 111, 3-{[5-(1-benzofuran-2-yl)pyrimidin-2-yl]amino}-N-[(5-methylfuran-2-yl)methyl]benzamide] | < 30 |  |
| O=C(NCCCN1CCOCC1)c1cccc(Nc2ccc(-c3ccccc3)nn2)c1 [Compound 15, N-[3-(morpholin-4-yl)propyl]-3-[(6-phenylpyridazin-3-yl)amino]benzamide] | < 30 | 30 to 60 |
